Consider one compound from EP0534995B1, “INCLUSION COMPOUNDS OF NIMESULIDE WITH CYCLODEXTRINS” (BOEHRINGER INGELHEIM ITALIA S.p.A., priority 1990, dated 1991).

A short description of one series: in vivo. As to conditions: male, Beagle, dog, plasma, po, 10 mg/kg.
For series [1] the following is noted: dog, oral, equivalent to 10 mg/kg nimesulide; mean of 4 dogs; computer fitting (TOP FIT) of plasma levels.
Description: (§1) Plasma kinetics were carried out in dog after oral administration of equivalent dosages of nimesulide and inclusion compound nimesulide -β-cyclodextrin according to a crossover scheme. Four male Beagle of body weight between 12.8 and 13.9 kg, fasted for at least 17 hours, were orally administered the following preparations: • A) nimesulide at the dose of 10 mg/kg • B) inclusion compound nimesulide -β-cyclodextrin (molar ratio 1 : 1) at the dose of 46.84 mg/Kg, corresponding to 10 mg/kg of nimesulide.
(§2) The preparations were administered in gelatine capsule after a "wash-out" period of 10 days.
(§3) The blood samples from dogs were collected in heparinized tubes after 1, 2, 3, 4, 5, 6, 8, 24, 28, 32, 48 and 52 hours from the administration of the two preparations. The relative plasma samples were obtained by centrifugation for 15 minutes at 3000 rpm.
(§4) The plasma levels of nimesulide were determined by HPLC with UV detection according to the following procedure: aliquots of plasma up to 2.5 ml were adjusted to 3.5 ml with distilled water and acidified with 1.0 ml of N hydrochloric acid and poured on to a glass column (18 mm i.d. 220 mm of lenght) containing 15 ml of Extralat® Merck. After 15 minutes nimesulide was eluted with two aliquotes of 7.5 ml of dichloromethane containing 5% of methanol. The eluate was evaporated to dryness under reduced pressure and the residue was taken up with 200 µl of 2.5 µg/ml solution of butilhydroxyanisole as internal standard. A suitable amount was therefore injected into a column by using the following chromatographic conditions: • Column RPC₈, 5 µm, 250 x 3 mm i.d. Supelco; • Mobile phase : acetonitrile + water containing 80 mg/l of EDTA in the ratio V/V 37.5 and 62.5 respectively; • Flow rate : 1.0 ml/min. • λ of detection: 230 nm
(§5) The parameters of AUC. Cmax and Tmax were calculated by the plasma levels of nimesulide using a computer fitting system with TOP FIT package and the results were statistically evaluated by the ANOVA TWO WAYS procedure.

Description for in vivo: as §1, §2, §3, §4, §5

In the case of `CS(=O)(=O)Nc1ccc([N+](=O)[O-])cc1Oc1ccccc1` [Preparation A, 4-nitro-2-phenoxy-methansulfonanilide], in “in vivo”, the area under the curve AUC(0-t) (as a rule, exposure summed from dosing to a finite time, without extrapolation to infinity) came out at 165 µg·h/mL and the Cmax (in general, the maximum level reached in the sampled fluid or tissue) was found to be 12100 ng/mL. Moreover, the TCmax in series [1] stood at 4.4 h.
